Results reported in patent US3987047A, “Tetrahydro-azepinoquinolines” (Boehringer Ingelheim GmbH, priority 1973, dated 1976).
Counter-ions that a name gives are not always drawn.

Assays:
[1] = Acute toxicity (LD50 in mice); conditions: in vivo, sc; for selectivity ratio: LD50 mouse s.c. / anorectic ED50 rat s.c., read-out: Therapeutic ratio LD50/ED50; for LD50 at 24 h: mouse, 24 hours observation
Description: Groups of 10 male mice of the NMRI-strain with body weights between 18 and 30 gm. The animals were put individually into cylindrical jars and received by subcutaneous injection under the dorsal skin gradually increasing doses from 0.1 to 0.2 ml/10 gm of body weight of the test compound. The limits for the test dosage range had previously been determined on individual mice. The symptoms of poisoning were recorded. After an observation period of 24 hours the dead animals were counted. The determination of the median lethal dose (LD50) according to G. KARBER [Arch. exper. Path. Pharmak. 162, 480, (1931)] concluded the test.

Male albino rats = assay: Anorectic test (effect on food intake of fasted rats); assay type: in vivo; conditions: sc; rat; dose which reduced the food intake by 50% over the reference value; 2 hour test period
Description: Male albino rats with starting weights from 200 to 250 gm, kept in so-called makrolon-cages, three to a cage, in an air-conditioned room at a temperature of 22 ± 1° C and about 50 % relative humidity. Between test runs, food (standard feed Altromin R) and drinking water were freely accessible.
A combination metabolism and motility test cage, described by J. M. van ROSSUM and F. SIMONS (Psychopharmacologia 14, 248, 1969) was used. With the aid of this device it is possible to measure the food intake and motoric activity on the same test animal.
For effecting and evaluating this test, a modified version of the method of J. SPENGLER and P. WASER [Arch. exp. Path. Pharmcol. 237, 171 (1959)] was used. A test group consisting of 6 ats was used for the test over a 3months' period, once a week, always on the same day of the week and at the same time of day. In preparation for the test, the animals were fasted for 24 hours while they had free access to drinking water. Then, they were put singly into the above-mentioned test cage for 2 hours, where a preweighed quantity of feed (Altromin-R, pulverized) and drinking water was offered ad libitum. Scattered feed was collected carefully, the consumed quantity of feed was determined by weighing the remaining quantity, and the food intake was calculated in terms of grams per 100 gm body weight. the test compound was injected subcutaneously or administered orally by esophageal sound at the beginning of the test period. […] Therefore, each group served as its own control. In the control tests the rats were given at the beginning of the 2 hour test period, 0.1 ml/100 gm water orally or 0.1 ml/100 gm physiological NaCl-solution subcutaneously. Before the test runs, 3 to 4 control tests were made and repeated later at intervals of 5 weeks. The average amount of the food intake which the animals had shown in the control tests was taken as the reference value. The anorectic activity of the test compound was expressed in terms of the percentage reduction of this reference value, and the median anorectic dose (ED50), i.e. the dose which reduced the food intake by 50% over the reference value was graphically calculated.

Row | Structure (SMILES) | selectivity ratio [1] | LD50 at 24 h [1] | ED50 (Male albino rats)
1 | Cc1c2c([n+]([O-])c3ccccc13)CCNCC2 [G, 1,2,4,5-tetrahydro-11-methyl-3H-azepino[4,5-b]quinoline-6-N-oxide hydrochloride] | 394 | 315 mg/kg | 0.8 mg/kg
2 | CCOC(=O)N1CCc2c(nc3ccccc3c2C)C(O)C1 (stereo not drawn) [L, 5-hydroxy-1,2,4,5-tetrahydro-11-methyl-3-azepino[4,5-b]quinoline-carboxylic acid ethyl ester] | – | – | 4 mg/kg
3 | Cc1c2c(nc3ccccc13)C(O)CNCC2.Cl.Cl (stereo not drawn) [H, 5-hydroxy-1,2,4,5-tetrahydro-11-methyl-3H-azepino[4,5-b]quinoline dihydrochloride] | 420 | 126 mg/kg | 0.3 mg/kg
4 | Cc1c2c(nc3ccc(Cl)cc13)CCNCC2.Cl.Cl [F, 9-chloro-1,2,4,5-tetrahydro-11-methyl-3H-azepino[4,5-b]quinoline dihydrochloride] | 143 | 215 mg/kg | 1.5 mg/kg
5 | CCCc1c2c(nc3ccccc13)CCNCC2.Cl.Cl [Compound E, 1,2,4,5-tetrahydro-11-propyl-3H-azepino[4,5-b]quinoline dihydrochloride] | 164 | 148 mg/kg | 0.9 mg/kg
6 | Cc1c2c(nc3cccc(Cl)c13)CCNCC2 [K, 10-chloro-1,2,4,5-tetrahydro-11-methyl-3H-azepino[4,5-b]quinoline dihydrochloide] | – | – | 1.3 mg/kg
7 | Cc1c2c(nc3ccccc13)CCN(CC(C)O)CC2.Cl.Cl (stereo not drawn) [M, 3-(2-hydroxy-propyl)-1,2,4,5-tetrahydro-11-methyl-3H-azepino[4,5-b]quinoline dihydrochloride] | – | – | 2 mg/kg
8 | CCN1CCc2nc3ccccc3c(C)c2CC1.Cl.Cl [A, 3-ethyl-1,2,4,5-tetrahydro-11-methyl-3H-azepino[4,5-b]quinoline dihydrochloride] | 95 | 180 mg/kg | 1.9 mg/kg
9 | CCOC(=O)N1CCc2nc3ccccc3c(C)c2CC1 [D, 1,2,4,5-tetrahydro-11-methyl-3-azepino[4,5-b]quinoline-carboxylic acid ethyl ester] | 1010 | 810 mg/kg | 0.8 mg/kg
10 | Cc1c2c(nc3ccccc13)CCCNC2.Cl.Cl [B, 2,3,4,5-tetrahydro-11-methyl-1H-azepino[4,3-b]quinoline dihydrochloride] | 177 | 195 mg/kg | 1.1 mg/kg
11 | Cc1c2c(nc3ccccc13)CCN(C(=O)OC(C)(C)C)CC2.Cl [J, 1,2,4,5-tetrahydro-11-methyl-3azepino[4,5-b]quinoline-carboxylic acid tert.butyl ester hydrochloride] | – | – | 1.1 mg/kg
12 | CCCN1CCc2nc3ccccc3c(C)c2CC1.Cl.Cl [I, 1,2,4,5-tetrahydro-11-methyl-3propyl-3H-azepino[4,5-b]quinoline dihydrochloride] | – | – | 0.9 mg/kg
13 | Cc1c2c(nc3ccccc13)CCNCC2.Cl.Cl [C, 1,2,4,5-tetrahydro-11-methyl-3H-azepino[4,5-b]quinoline dihydrochloride] | 415 | 83 mg/kg | 0.2 mg/kg
14 | COC(=O)N1CCc2nc3ccccc3c(C)c2CC1 [N, 1,2,4,5-tetrahydro-11-methyl-3-azepino[4,5-b]quinoline-carboxylic acid methyl ester] | – | – | 1.8 mg/kg
